Test results as given in patent publication US20230072683A1, “PYRIDO-PYRIMIDIN DERIVATIVES AND PHARMACEUTICAL COMPOSITION, FOR USE IN PREVENTING OR TREATING PI3 KINASE RELATED DISEASES, COMPRISING SAME AS ACTIVE INGREDIENT” (BORYUNG PHARMACEUTICAL CO., LTD, priority 2019, published 2023).

What was measured:
[1] = target: PI3K-δ (PI3K(p1108/p857) (h)) (Homo sapiens, UniProt O00329); experiment: Evaluation of inhibitory activity against PI3K-δ (HTRF kinase assay); assay type: biochemical; details: compound at 0.1 μM; read-out: EXP_VALUE(% Inhibition) PI3K-δ 0.1 μM
Method in brief: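 HTRF read-out (665/620 nm ratio ×10000) used Eu-labelled anti-GST, GST-tagged GRP1 PH domain and streptavidin-allophycocyanin after EDTA/PIP3 stop.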

[2] = target: DNA-PK(h) (Homo sapiens, UniProt P78527); experiment: Evaluation of inhibitory activity against DNA-PK (HTRF kinase assay, GST-cMyc-p53 substrate); assay type: biochemical; details: compound at 0.1 μM; read-out: EXP_VALUE(% Inhibition) DNA-PK(h) 0.1 μM
Method in brief: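 p53 Ser15 phosphorylation by human DNA-PK was measured by time-resolved FRET ratio (665/620 nm ×10000) using Eu-labelled anti-phospho-Ser15 and d2 anti-GST antibodies. Substrate GST-cMyc-p53 at 50 μM; Mg/ATP-initiated, 30 min at room temperature, EDTA stop.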

PI3K-δ (PI3K(p1108/p857) (h)), sequence (O00329 whole entry, the tested form may be a part): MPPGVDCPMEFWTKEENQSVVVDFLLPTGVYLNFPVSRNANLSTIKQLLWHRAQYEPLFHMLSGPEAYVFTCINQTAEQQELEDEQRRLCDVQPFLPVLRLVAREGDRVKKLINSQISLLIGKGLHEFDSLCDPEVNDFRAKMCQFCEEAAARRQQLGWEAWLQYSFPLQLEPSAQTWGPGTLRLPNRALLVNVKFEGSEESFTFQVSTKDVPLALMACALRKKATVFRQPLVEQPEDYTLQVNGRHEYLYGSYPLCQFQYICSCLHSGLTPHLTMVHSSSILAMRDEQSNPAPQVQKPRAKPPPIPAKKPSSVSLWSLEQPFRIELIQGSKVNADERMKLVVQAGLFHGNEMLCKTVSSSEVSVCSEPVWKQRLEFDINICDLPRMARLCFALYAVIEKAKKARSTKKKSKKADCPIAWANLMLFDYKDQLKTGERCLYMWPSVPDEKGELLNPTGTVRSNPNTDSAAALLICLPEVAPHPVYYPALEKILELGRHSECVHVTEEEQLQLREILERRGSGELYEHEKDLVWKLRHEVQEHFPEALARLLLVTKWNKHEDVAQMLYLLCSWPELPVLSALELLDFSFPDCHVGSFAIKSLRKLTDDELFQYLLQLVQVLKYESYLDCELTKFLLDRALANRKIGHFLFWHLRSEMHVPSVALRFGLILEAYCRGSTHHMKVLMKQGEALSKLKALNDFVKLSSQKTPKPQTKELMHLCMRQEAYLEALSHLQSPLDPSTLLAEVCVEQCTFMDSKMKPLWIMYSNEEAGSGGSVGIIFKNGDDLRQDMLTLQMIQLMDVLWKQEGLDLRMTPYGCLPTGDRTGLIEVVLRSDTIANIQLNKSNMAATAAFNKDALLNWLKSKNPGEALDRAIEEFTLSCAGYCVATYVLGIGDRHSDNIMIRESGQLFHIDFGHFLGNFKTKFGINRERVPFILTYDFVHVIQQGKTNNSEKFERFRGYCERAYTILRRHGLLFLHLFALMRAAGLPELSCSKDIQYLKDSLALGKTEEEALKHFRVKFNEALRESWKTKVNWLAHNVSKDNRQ
PI3K-δ (PI3K(p1108/p857) (h)), sequence (P27986 whole entry partner, the tested form may be a part): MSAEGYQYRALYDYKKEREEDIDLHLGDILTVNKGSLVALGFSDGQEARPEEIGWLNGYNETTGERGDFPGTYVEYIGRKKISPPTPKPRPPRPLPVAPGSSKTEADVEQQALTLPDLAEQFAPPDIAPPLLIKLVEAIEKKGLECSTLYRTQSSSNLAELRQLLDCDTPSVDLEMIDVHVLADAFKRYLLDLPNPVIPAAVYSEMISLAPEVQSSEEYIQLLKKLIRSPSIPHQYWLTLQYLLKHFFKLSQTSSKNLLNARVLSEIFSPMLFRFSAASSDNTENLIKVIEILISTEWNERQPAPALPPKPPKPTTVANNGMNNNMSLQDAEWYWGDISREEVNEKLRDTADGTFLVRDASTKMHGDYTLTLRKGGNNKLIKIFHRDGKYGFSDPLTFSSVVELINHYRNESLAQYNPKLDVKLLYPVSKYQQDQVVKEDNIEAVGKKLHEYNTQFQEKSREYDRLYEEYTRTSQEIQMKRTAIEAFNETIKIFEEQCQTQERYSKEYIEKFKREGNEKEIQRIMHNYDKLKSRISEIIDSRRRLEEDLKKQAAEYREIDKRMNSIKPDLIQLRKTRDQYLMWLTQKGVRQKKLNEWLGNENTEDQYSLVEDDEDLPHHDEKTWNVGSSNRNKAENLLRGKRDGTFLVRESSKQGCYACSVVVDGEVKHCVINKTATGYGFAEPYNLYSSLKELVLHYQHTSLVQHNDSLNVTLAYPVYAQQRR

| Structure (SMILES) | inhibition at 0.1 µM [1] [%] | inhibition at 0.1 µM [2] [%] |
| --- | --- | --- |
| C[C@H](Nc1ncnc2[nH]ccc(=O)c12)c1c(Cl)c2cccc(Sc3ccccn3)c2c(=O)n1-c1ccccc1 [Example 412, (S)-4-((1-(4-chloro-1-oxo-2-phenyl-8-(pyridin-2-ylthio)-1,2-dihydroisoquinolin-3-yl)ethyl)amino)pyrido[2,3-d]pyrimidin-5(8H)-one] | 29 | 15 |
| C[C@H](Nc1ncnc2[nH]ccc(=O)c12)c1c(Cl)c2cccc([S+]([O-])c3ccccn3)c2c(=O)n1-c1ccccc1 (stereo partly drawn) [Example 413, 4-(((1S)-1-(4-chloro-1-oxo-2-phenyl-8-(pyridin-2-ylsulfinyl)-1,2-dihydroisoquinolin-3-yl)ethyl)amino)pyrido[2,3-d]pyrimidin-5(8H)-one] | 16 | 30 |
| C[C@H](Nc1ncnc2[nH]ccc(=O)c12)c1c(Cl)c2cccc(Sc3nccs3)c2c(=O)n1-c1ccccc1 [Example 417, (S)-4-((1-(4-chloro-1-oxo-2-phenyl-8-(thiazol-2-ylthio)-1,2-dihydroisoquinolin-3-yl)ethyl)amino)pyrido[2,3-d]pyrimidin-5(8H)-one] | 26 | 48 |
| C[C@H](Nc1ncnc2[nH]ccc(=O)c12)c1c(Cl)c2cccc(SC3COC3)c2c(=O)n1-c1ccccc1 [Example 418, (S)-4-((1-(4-chloro-8-(oxetan-3-ylthio)-1-oxo-2-phenyl-1,2-dihydroisoquinolin-3-yl)ethyl)amino)pyrido[2,3-d]pyrimidin-5(8H)-one] | 1 | 29 |
| C[C@H](Nc1ncnc2[nH]ccc(=O)c12)c1c(Cl)c2cccc([S+]([O-])c3ncccn3)c2c(=O)n1-c1ccccc1 (stereo partly drawn) [Example 419, 4-(((1S)-1-(4-chloro-1-oxo-2-phenyl-8-(pyrimidin-2-ylsulfinyl)-1,2-dihydroisoquinolin-3-yl)ethyl)amino)pyrido[2,3-d]pyrimidin-5(8H)-one] | 7 | 47 |
| C[C@H](Nc1ncnc2[nH]ccc(=O)c12)c1c(Cl)c2cccc(Sc3ncccn3)c2c(=O)n1-c1ccccc1 [Example 423, (S)-4-((1-(4-chloro-1-oxo-2-phenyl-8-(pyrimidin-2-ylthio)-1,2-dihydroisoquinolin-3-yl)ethyl)amino)pyrido[2,3-d]pyrimidin-5(8H)-one] | 20 | 22 |
| C[C@H](Nc1ncnc2[nH]ccc(=O)c12)c1c(Cl)c2cccc(-c3cnc(OC(C)(C)C)nc3)c2c(=O)n1-c1ccccc1 [Example 424, (S)-4-((1-(8-(2-(tert-butoxy)pyrimidin-5-yl)-4-chloro-1-oxo-2-phenyl-1,2-dihydroisoquinolin-3-yl)ethyl)amino)pyrido[2,3-d]pyrimidin-5(8H)-one] | 38 | 56 |
| C[C@H](Nc1ncnc2[nH]ccc(=O)c12)c1c(Cl)c2cccc(Oc3ccncc3)c2c(=O)n1-c1ccccc1 [Example 428, (S)-4-((1-(4-chloro-1-oxo-2-phenyl-8-(pyridin-4-yloxy)-1,2-dihydroisoquinolin-3-yl)ethyl)amino)pyrido[2,3-d]pyrimidin-5(8H)-one] | 86 | 13 |
| C[C@H](Nc1ncnc2[nH]ccc(=O)c12)c1c(Cl)c2cccc(OCc3ccncc3)c2c(=O)n1-c1ccccc1 [Example 429, (S)-4-((1-(4-chloro-1-oxo-2-phenyl-8-(pyridin-4-ylmethoxy)-1,2-dihydroisoquinolin-3-yl)ethyl)amino)pyrido[2,3-d]pyrimidin-5(8H)-one] | 47 | 63 |
| C[C@H](Nc1ncnc2[nH]ccc(=O)c12)c1c(Cl)c2cccc(OCc3ccccn3)c2c(=O)n1-c1ccccc1 [Example 430, (S)-4-((1-(4-chloro-1-oxo-2-phenyl-8-(pyridin-2-ylmethoxy)-1,2-dihydroisoquinolin-3-yl)ethyl)amino)pyrido[2,3-d]pyrimidin-5(8H)-one] | 44 | 68 |

The next lines start with the values.

| inhibition at 0.1 µM [1] [%] | inhibition at 0.1 µM [2] [%] | Structure (SMILES) |
| --- | --- | --- |
| 17 | 53 | CCC[S@](=N)(=O)c1cccc2c(Cl)c([C@H](C)Nc3ncnc4[nH]ccc(=O)c34)n(-c3ccccc3)c(=O)c12 [Example 409, 4-(((S)-1-(4-chloro-1-oxo-2-phenyl-8-((S)-propylsulfonimidoyl)-1,2-dihydroisoquinolin-3-yl)ethyl)amino)pyrido[2,3-d]pyrimidin-5(8H)-one] |
| 14 | 23 | CC(C)[S@@](=N)(=O)c1cccc2c(Cl)c([C@H](C)Nc3ncnc4[nH]ccc(=O)c34)n(-c3ccccc3)c(=O)c12 [Example 410, 4-(((S)-1-(4-chloro-1-oxo-2-phenyl-8-((R)-propan-2-ylsulfonimidoyl)-1,2-dihydroisoquinolin-3-yl)ethyl)amino)pyrido[2,3-d]pyrimidin-5(8H)-one] |
| 4 | 37 | CC(C)[S@](=N)(=O)c1cccc2c(Cl)c([C@H](C)Nc3ncnc4[nH]ccc(=O)c34)n(-c3ccccc3)c(=O)c12 [Example 411, 4-(((S)-1-(4-chloro-1-oxo-2-phenyl-8-((S)-propan-2-ylsulfonimidoyl)-1,2-dihydroisoquinolin-3-yl)ethyl)amino)pyrido[2,3-d]pyrimidin-5(8H)-one] |
| 44 | 32 | C[C@H](Nc1ncnc2[nH]ccc(=O)c12)c1c(Cl)c2cccc(S(=O)(=O)c3ccccn3)c2c(=O)n1-c1ccccc1 [Example 414, (S)-4-((1-(4-chloro-1-oxo-2-phenyl-8-(pyridin-2-ylsulfonyl)-1,2-dihydroisoquinolin-3-yl)ethyl)amino)pyrido[2,3-d]pyrimidin-5(8H)-one] |
| 0 | 23 | CC(C)Sc1cccc2c(Cl)c([C@H](C)Nc3ncnc4[nH]ccc(=O)c34)n(-c3ccccc3)c(=O)c12 [Example 415, (S)-4-((1-(4-chloro-8-(isopropylthio)-1-oxo-2-phenyl-1,2-dihydroisoquinolin-3-yl)ethyl)amino)pyrido[2,3-d]pyrimidin-5(8H)-one] |
| 13 | 52 | CC(C)S(=O)(=O)c1cccc2c(Cl)c([C@H](C)Nc3ncnc4[nH]ccc(=O)c34)n(-c3ccccc3)c(=O)c12 [Example 416, (S)-4-((1-(4-chloro-8-(isopropylsulfonyl)-1-oxo-2-phenyl-1,2-dihydroisoquinolin-3-yl)ethyl)amino)pyrido[2,3-d]pyrimidin-5(8H)-one] |
| 37 | 36 | C[C@H](Nc1ncnc2[nH]ccc(=O)c12)c1c(Cl)c2cccc(S(=O)(=O)c3ncccn3)c2c(=O)n1-c1ccccc1 [Example 420, (S)-4-((1-(4-chloro-1-oxo-2-phenyl-8-(pyrimidin-2-ylsulfonyl)-1,2-dihydroisoquinolin-3-yl)ethyl)amino)pyrido[2,3-d]pyrimidin-5(8H)-one] |
| 9 | 7 | C[C@H](Nc1ncnc2[nH]ccc(=O)c12)c1c(Cl)c2cccc([S@](=N)(=O)c3ncccn3)c2c(=O)n1-c1ccccc1 [Example 421, 4-(((S)-1-(4-chloro-1-oxo-2-phenyl-8-((S)-pyrimidine-2-sulfonimidoyl)-1,2-dihydroisoquinolin-3-yl)ethyl)amino)pyrido[2,3-d]pyrimidin-5(8H)-one] |
| 9 | 18 | C[C@H](Nc1ncnc2[nH]ccc(=O)c12)c1c(Cl)c2cccc([S@@](=N)(=O)c3ncccn3)c2c(=O)n1-c1ccccc1 [Example 422, 4-(((S)-1-(4-chloro-1-oxo-2-phenyl-8-((R)-pyrimidine-2-sulfonimidoyl)-1,2-dihydroisoquinolin-3-yl)ethyl)amino)pyrido[2,3-d]pyrimidin-5(8H)-one] |
| 86 | 16 | C[C@H](Nc1ncnc2[nH]ccc(=O)c12)c1c(Cl)c2cccc(S(C)(=N)=O)c2c(=O)n1-c1ccccc1 (stereo partly drawn) [Example 425, 4-(((1S)-1-(4-chloro-8-(S-methylsulfonimidoyl)-1-oxo-2-phenyl-1,2-dihydroisoquinolin-3-yl)ethyl)amino)pyrido[2,3-d]pyrimidin-5(8H)-one] |
| 12 | 8 | C[C@H](Nc1ncnc2[nH]ccc(=O)c12)c1c(Cl)c2cccc(SC(C)(C)C)c2c(=O)n1-c1ccccc1 [Example 426, (S)-4-((1-(8-(tert-butylthio)-4-chloro-1-oxo-2-phenyl-1,2-dihydroisoquinolin-3-yl)ethyl)amino)pyrido[2,3-d]pyrimidin-5(8H)-one] |
| 38 | 7 | C[C@H](Nc1ncnc2[nH]ccc(=O)c12)c1c(Cl)c2cccc(S)c2c(=O)n1-c1ccccc1 [Example 427, (S)-4-((1-(4-chloro-8-mercapto-1-oxo-2-phenyl-1,2-dihydroisoquinolin-3-yl)ethyl)amino)pyrido[2,3-d]pyrimidin-5(8H)-one] |
| 32 | 57 | C[C@H](Nc1ncnc2[nH]ccc(=O)c12)c1c(Cl)c2cccc([S+]([O-])C3COC3)c2c(=O)n1-c1ccccc1 (stereo partly drawn) [Example 431, 4-(((1S)-1-(4-chloro-8-(oxetan-3-ylsulfinyl)-1-oxo-2-phenyl-1,2-dihydroisoquinolin-3-yl)ethyl)amino)pyrido[2,3-d]pyrimidin-5(8H)-one] |
| 87 | 47 | C[C@H](Nc1ncnc2[nH]ccc(=O)c12)c1c(Cl)c2cccc(S(=O)(=O)C3COC3)c2c(=O)n1-c1ccccc1 [Example 432, (S)-4-((1-(4-chloro-8-(oxetan-3-ylsulfonyl)-1-oxo-2-phenyl-1,2-dihydroisoquinolin-3-yl)ethyl)amino)pyrido[2,3-d]pyrimidin-5(8H)-one] |
